Laboratory results as given in paper PMC11134387, “Cancer-Stem-Cell Phenotype-Guided Discovery of a Microbiota-Inspired Synthetic Compound Targeting NPM1 for Leukemia” (JACS Au, 2024).
“Also recorded” adds a separate entry of the source.

Experiments:
[1] = test system: primary HSCs from AML patients; experiment: CD34+ liquid HSC short-term culture, AML patients; format: cell-based; settings: Homo sapiens
Protocol: Considering the inhibitory capacity of UCM-13369 on AML cell lines (shown in Figure 3A), the therapeutic potential was assessed in primary CD34+ cells from AML patients. Two ex vivo models were used from AML patients and healthy donors: CD34+ liquid HSC (hematopoietic stem cell) culture as a short-term model and CFU-E (colony-forming unit–erythroid) as a midterm model.
The test compound was diluted in PBS. […]
Primary cells. 1x10^6/mL total mononuclear bone marrow cells (as source of CD34+ HSCs) of healthy donors and AML patients were used. They were cultured using Stem SpanTM supplement with pencillin/streptomycin (500 U/ml), TPO (10 µg/mL), SCF (10 µg/mL), FLT3 (10 µg/mL), IL-6 (10 µg/mL) and IL-3 (10 µg/mL). After 24 h fresh medium was added. After 72 h in maintenance cells were ready to start the assays. All cells wer e maintained at 37 °C in a humidified incubator in an atmosphere of 5% CO2. […]

[2] = Plasma protein binding, equilibrium dialysis (RED); format: in vitro ADME; settings: pH 7.4, mouse serum, read-out: Plasma protein binding, bound fraction (converted)
Protocol: Based on the encouraging results obtained in ex vivo models of AML, we further assessed the therapeutic potential of the new NPM1 inhibitor in vivo. Prior to the evaluation of the compound in an animal model of AML, in vivo pharmacokinetic studies were addressed. Following a single intraperitoneal administration of UCM-13369 at a dose of 25 mg/kg, levels of 200–600 μg/L were detected in mouse peripheral blood up to 6 h (Figure 6A). Plasma protein binding of the compound in mouse serum was measured using an equilibrium dialysis assay, indicating a bound fraction of 83 ± 1%. Next, the efficacy of the compound was evaluated in immunodeficient mice after injection of OCI-AML3-ffLuc-GFP cells as an AML animal model. […]
coupled to a liquid nanochromatography Easy nLC 1200 System (Thermo Scientific).
Once digested, mutant NPM1 C+ C-end sample w as injected into a EASY-Spray™ C18 column, and digestion peptides were separated by using a lineal phase gradi ent (A: 0.1% formic acid in water; B: 20% acetonitrile, 0.1% formic acid in water) for 120 min. Spectra were acquired in DDA m ode, analyzing the 10 higher intensity parent ions in each cycl e.
Proteome Discoverer (Thermo Scientific) was used to align the spectra with the C-end […]
Random exclusion of AIRs was set to 2%. […] Clusters were classifi ed according to H ADDOCK score and stru ctures w er e analyzed with UCSF ChimeraX).10 […]

[3] = test system: OCI-AML3-ffLuc-GFP cells; experiment: AML xenograft mouse model (OCI-AML3-ffLuc-GFP in NSG mice); format: in vivo
Protocol: Based on the encouraging results obtained in ex vivo models of AML, we further assessed the therapeutic potential of the new NPM1 inhibitor in vivo. Prior to the evaluation of the compound in an animal model of AML, in vivo pharmacokinetic studies were addressed. Following a single intraperitoneal administration of UCM-13369 at a dose of 25 mg/kg, levels of 200–600 μg/L were detected in mouse peripheral blood up to 6 h (Figure 6A). Plasma protein binding of the compound in mouse serum was measured using an equilibrium dialysis assay, indicating a bound fraction of 83 ± 1%. Next, the efficacy of the compound was evaluated in immunodeficient mice after injection of OCI-AML3-ffLuc-GFP cells as an AML animal model.
An AML xenograft mouse model was used for the in vivo study of efficacy. Female 6- to 8-week-old NOD.Cg-Prkdcscid Il2rgtm1Wjl/SzJ (NSG) mice (Vivotecnia, Madrid, Spain) were inoculated intravenously by tail vein injection with OCI-AML3-ffLuc-GFP cells (1 × 10^6). Four days later, the mice were randomized into two groups of 10 animals: the first group received intraperitoneal injections of vehicle (0.9% saline solution) 5 days a week; the second group received intraperitoneal injections of 25 mg/kg or 50 mg/kg UCM-13369 five times weekly for 3 weeks. The mice were monitored for tumor burden, distribution, and engraftment every week by IVIS whole-body bioluminescence imaging. Bioimaging of MM burden in vivo was performed by IVIS Imaging system (Caliper Life Science). A solution of luciferin (D-luciferin monosodium salt, Thermo Fisher) in PBS was injected (150 mg/kg, ip), and luminescence signal was determined after 10 min. The data were analyzed using the Living Image 4.2 (Caliper Life Science) software.

COc1ccc(C2Cc3[nH]c4ccccc4c3C(CCNCC3CC3)C2N)cc1 (stereo not drawn) [4b, 4-{2-[(Cyclopropylmethyl)amino]ethyl}-2-(4-methoxyphenyl)-2,3,4,9-tetrahydro-1H-carbazol-3-amine]
IC50 [1]: 1.88 µM
fraction unbound at 6 h [2]: 0.17
Reduction in tumor mass (in words) ([3]; 25 mg/kg, data not shown): negligible
Tumor cell infiltration of bone marrow, H&E staining (in words) ([3]; 50 mg/kg): less tumor cell infiltration
Survival, treated vs untreated animals (in words) ([3]; 50 mg/kg, Kaplan-Meier, listed as UCM-13369): no significant differences; also recorded: no difference
Tumor infiltration vs untreated group at end point (in words) ([3]; 50 mg/kg, bioluminescence): reduction of tumor infiltration
